Values of other authors as cited in patent US20210369751A1, “BIOLOGICALLY ACTIVE COMPOSITIONS AND METHODS OF USING” (Mediwel Labs, LLC, priority 2020, published 2021).
Entries after “also recorded” stand apart in the source; their conditions may differ.

How the values were obtained:
[1] = target: T1, CD38 (Homo sapiens, UniProt P28907); details: purified pharmaceutical grade flavonoids; competitive antagonists
T1 sequence (P28907 1-300): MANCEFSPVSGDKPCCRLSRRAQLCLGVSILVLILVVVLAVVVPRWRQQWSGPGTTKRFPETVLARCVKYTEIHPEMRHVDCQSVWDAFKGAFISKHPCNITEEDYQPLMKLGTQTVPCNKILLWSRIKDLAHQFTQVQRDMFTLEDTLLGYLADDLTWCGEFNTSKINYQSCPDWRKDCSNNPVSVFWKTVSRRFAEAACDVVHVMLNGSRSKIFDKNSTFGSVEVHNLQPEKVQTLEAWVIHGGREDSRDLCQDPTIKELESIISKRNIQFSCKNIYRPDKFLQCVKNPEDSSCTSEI

[2] = 20 mg piperine daily for seven days before 300 mg phenytoin
[3] = 20 mg piperine daily for seven days before 150 mg theophylline
[4] = propranolol co-administered with 3 mg piperine

| Structure (SMILES) | inhibition of CD38 and its catalytic activity [1] | elimination of phenytoin with piperine pretreatment [2] | maximum concentration of phenytoin with piperine pretreatment [2] | time to maximum concentration of phenytoin with piperine pretreatment [2] | elimination rate of theophylline with piperine pretreatment [3] | maximum concentration of theophylline, pretreated with piperine versus drug alone ([3]; six healthy volunteers) [times] | elimination rate of propranolol with piperine [4] | maximum blood concentration / blood levels of propranolol with piperine [4] |
| --- | --- | --- | --- | --- | --- | --- | --- | --- |
| O=c1cc(-c2ccc(O)cc2)oc2cc(O)cc(O)c12 [apigenin] | potent inhibition | – | – | – | – | – | – | – |
| O=c1c(O)c(-c2ccc(O)c(O)c2)oc2cc(O)cc(O)c12 [quercetin] | potent inhibition | – | – | – | – | – | – | – |
| O=C(/C=C/C=C/c1ccc2c(c1)OCO2)N1CCCCC1 [piperine] | – | significantly slower elimination | significantly higher concentrations | shorter time | significantly slowed down | 1.5 | did not affect the elimination rate; also recorded: without slowing down the drug elimination rate | increased two fold; also recorded: doubling its blood levels |
